Here are results for 13 compounds from patent US20010025105A1, “Certain substituted 1-aryl-3-piperazine-1'-yl propanones” (Molecular Geriatarics Corporation, priority 1997, published 2001).

Counter-ions that a name gives are not always drawn.

What is called melting point is the temperature, or range, at which the solid turns liquid.

In the case of `Cn1cc(C(=O)CCN2CCN(Cc3ccccc3)CC2)cn1` (as salt: hydrochloride) [Example 24, 1-(1″-Methyl-1″-H-pyrazol-4″-yl)-3-(4′-benzyl-1′-piperazinyl)-1-propanone dihydrochloride], the melting point was 221 °C (dec.).

`CS(=O)(=O)Nc1ccc(C(=O)CCN2CCN(Cc3ccccc3)CC2)cc1` (as salt: hydrochloride) [Example 26, 1-[-p-(Methanesulfonamido)phenyl]-3-(4′-benzyl-1′-piperazinyl)-1-propanone dihydrochloride] returned a melting point of 202 to 205 °C.

As for `O=C(CCN1CCN(Cc2ccccc2)CC1)c1ccc2c(c1)Cc1ccccc1-2` (as salt: hydrochloride) [Example 28, 1-(Fluoren-2″-yl)-3-(4′-benzyl-1′-piperazinyl)-1-propanone dihydrochloride], the melting point is 225 °C (dec.).

For `O=C(CCN1CCN(C(=O)c2c(F)cccc2F)CC1)c1ccc([N+](=O)[O-])cc1` (as salt: hydrochloride) [Example 40, 1-(p-Nitrophenyl)-3-[4′-(2″,6″-difluorobenzoyl)-1′-piperazinyl]-1-propanone hydrochloride], the melting point lay within 225 to 227 °C.

As to `O=C(CCN1CCN(C(=O)c2ccccc2F)CC1)c1ccc([N+](=O)[O-])cc1` (as salt: hydrochloride) [Example 54, 1-(p-Nitrophenyl)-3-(4′-o-fluorobenzoyl-1′-piperazinyl)-1-propanone dihydrochloride], the melting point fell in the range of 217 to 218 °C.

On to `O=C(CCN1CCN(Cc2ccccc2)CC1)c1ccc(-c2ccccc2)s1` (as salt: hydrochloride) [Example 56, 1-(5″-Phenyl-2″-thienyl)-3-(4′-benzyl-1′-piperazinyl)-1-propanone dihydrochloride], for which the melting point was in the range of 224 to 247 °C.

Turning to `O=C(CCN1CCN(C(=O)c2c(F)cccc2F)CC1)c1ccc(Br)s1` (as salt: hydrochloride) [Example 62, 1-(5′″-Bromo-2′″-thienyl)-3-[4′-(2″,6″-difluorobenzoyl)-1′-piperazinyl]-1-propanone hydrochloride], the melting point lay within 225 to 226 °C.

Regarding `Cc1ccc(C(=O)CCN2CCN(Cc3ccccc3)CC2)o1` (as salt: hydrochloride) [Example 67, 1-(5″-Methyl-2″-furanyl)-3-(4′-benzyl-1′-piperazinyl)-1-propanone hydrochloride], the melting point was 213 °C (dec.).

On to `O=C(CCN1CCN(C(=O)c2ccc(I)cc2)CC1)c1ccc(N2CCOCC2)cc1` (as salt: hydrochloride) [Example 68, 1-(p-N-Morpholinophenyl)-3-[4′-p-iodobenzoyl)-1′-piperazinyl]-1-propanone dihydrochloride], for which the melting point stood at 240 °C.

`O=C(CCN1CCN(Cc2ccccc2)CC1)c1ccc(Sc2ccccc2)cc1` (as salt: hydrochloride) [Example 69, 1-p-Phenylthiophenyl-3-(4′-benzyl-1′-piperazinyl)-3-propanone dihydrochlonde]: the melting point is 210 °C (dec.).

As to `O=C(CCN1CCN(C(=O)c2ccccc2F)CC1)c1cccs1` (as salt: hydrochloride) [Example 70, 1-(2″-Thienyl)-3-[4′-(o-fluorobenzoyl)-1′-piperazinyl]-1-propanone hydrochloride], the melting point was 183 to 184 °C.

For the compound `COc1ccc(C(=O)CCN2CCN(Cc3ccccc3)CC2)c2ccccc12` (as salt: hydrochloride) [Example 79, 1-(4″-Methoxy-1″-naphthalenyl)-3-(4′-benzyl-1′-piperazinyl)-1-propanone dihydrochloride], the melting point is 230 °C (dec.).

Regarding `Cc1c(C(=O)CCN2CCN(Cc3ccccc3)CC2)sc2ccc(Cl)cc12` (as salt: hydrochloride) [Example 82, 1-(5″-Chloro-3″-methylbenzo[b]-2″-thienyl)-3-(4′-benzyl-1′-piperazinyl)-1-propanone dihydrochloride], the melting point is 247 °C (dec.).
